Measured values reported in US20150087673A1, “METHODS FOR USING AND BIOMARKERS FOR AMPK-ACTIVATING COMPOUNDS” (RIGEL PHARMACEUTICALS, INC., priority 2013, published 2015).

Key:
glucose uptake = assay: Glucose uptake in vitro; format: cell-based
db/db mice = assay: [U-13C]-D-glucose tracer analysis in db/db mice; format: in vivo, mouse
Description: Male db/db mice (8 weeks) were orally gavaged once daily with vehicle, 5 mg/kg compound 309, or 10 mg/kg compound 309. Thirty minutes after dosing at day 8, 0.5 mg/kg of the metabolic tracer was administered, either via intraperitoneal injection for [U-^13C]-glucose or oral gavage for [U-^13C]-palmitate, followed by collection of liver, muscle, adipose tissue, and plasma at the timepoints indicated in the figure legends. Frozen samples were sent to SiDMAP, LLC (Los Angeles, Calif.) for isotope tracer analysis [Boros L G, Huang D, Heaney A P (2012) Fructose Drives Glucose via Direct Oxidation and Promotes Palmitate/Oleate Co-Release from Hepg2 Cells: Relevance with the Randle Cycle. Metabolomics 2: 107-115; Huang J, Simcox J, Mitchell T C, Jones D, Cox J, et al. (2013) Iron regulates glucose homeostasis in liver and muscle via AMP-activated protein kinase in mice. FASEB J.]. [U-^13C]-D-glucose and [U-^13C]-palmitate were from Sigma-Aldrich. Sample preparation, analysis, and informatics were performed on blinded samples. Statistical analyses were performed using the 2-tailed Student t test.
A more sensitive [U-^13C]-D-glucose tracer analysis was carried out as follows: Non-fasted db/db mice treated with vehicle or compound 309 for one week were given an intraperitoneal injection of an [U-^13C]-D-glucose tracer (0.5 mg/kg) followed by measurements of tracer carbon incorporation into various metabolites after glucose injection.

gluconeogenesis = assay: Gluconeogenesis in vitro; format: cell-based

## COc1ccc(C(=O)C2CCN(C(=O)c3ccc(C(=O)NC4CCN(Cc5ccc(C#N)cc5)CC4)cn3)CC2)cc1 [Compound 309, N-(1-(4-cyanobenzyl)piperidin-4-yl)-6-(4-(4-methoxybenzoyl)piperidine-1-carbonyl)nicotinamide]
Glucose uptake
  glucose uptake: robust enhancement
db/db mice; after saponification of muscle acylglycerols and acylcarnitines
  skeletal muscle palmitate and myristate levels: significant decreases
db/db mice; all three tissues
  13CO2 release (glucose oxidation via the TCA cycle): increased
db/db mice; liver and adipose tissues, 60 and 90 minutes post-tracer
  13CO2 enrichment after [U-13C]-D-glucose: clear dose-dependent increase
db/db mice; plasma or liver, data not shown
  13C-labeled fraction of palmitate: no increase
db/db mice; skeletal muscle
  dose-dependence of complete glucose tracer oxidation: no dose-dependence
db/db mice; skeletal muscle, 60 and 90 minutes
  13C-labeled fatty acids in palmitate and myristate pools: significantly enriched
db/db mice; skeletal muscle, 60 minutes
  13CO2 enrichment after [U-13C]-D-glucose vs vehicle: no differences
db/db mice; skeletal muscle, 90 minute timepoint
  level of 13C-labeled myristate compared to vehicle: two-fold higher
db/db mice; skeletal muscle, 90 minutes
  tracer oxidation (13CO2 enrichment) after [U-13C]-D-glucose: clearly sustained
gluconeogenesis
  gluconeogenesis: reduction
